Laboratory results taken from paper PMC8667898, “Topo II inhibition and DNA intercalation by new phthalazine-based derivatives as potent anticancer agents: design, synthesis, anti-proliferative, docking, and in vivo studies” (Journal of Enzyme Inhibition and Medicinal Chemistry, 2021).

What was measured:
[1] = Histopathological examination of liver tissues of SEC-bearing mice; format: in vivo, Swiss albino mice; conditions: H&E stain, ×200
Description: (§1) The experimental animals were randomly divided into four groups. Group 1 served as the normal saline control (5 ml/kg B.Wt., I.P.). Group 2 served as the SEC control (1 × 10^6 cells/mouse). Group 3 served as the compound-treated group (5 mg/kg B.Wt., I.P.). […] Bodyweight and survival were recorded daily until the 24th day in both treated and control groups. At the end of the experiment, the blood of each group was collected under light anaesthesia to the estimate of hematological and biochemical assays. The anaesthetised animals were then sacrificed for evaluation of the antitumor activity and histopathological examination.
Specimens of liver-sacrificed mice were fixed in 10% saline formalin. The fixed liver specimens were dehydrated in ascending series of ethyl alcohol and embedded in paraffin. Sections at […] thicknesses were stained with haematoxylin and eosin and examined under the light microscope.

[2] = test system: HCT-116 cells (colorectal carcinoma); experiment: MTT anti-proliferative assay, HCT-116; format: cell-based, human; conditions: Homo sapiens, HCT-116, MTT, mean ± SD of three separate experiments; read-out: In vitro Cytotoxicity IC50 HCT-116
Description: Anti-proliferative activities of the target compounds were assessed via the standard MTT method[38–40] against three cancer cell lines, namely, hepatocellular carcinoma (HepG-2), colorectal carcinoma (HCT-116), and human breast adenocarcinoma (MCF-7). Doxorubicin was used in this test as a positive control.
Anti-proliferative activity of the synthesised compounds was estimated using the MTT assay protocol[8]^,[38–40] as shown in Supplementary data.
4.2.1. In vitro anti-proliferative activity against MCF-7, HepG-2 and HCT-116 The cells were cultured in RPMI-1640 medium supplemented with 10% fetal bovine serum (FBS), penicillin (100 unit /mL) and streptomycin sulphate (100µg/mL) at 37 °C in a 5% CO2 incubator.
Then, cells were dropped in 96-well plates at a density of 3-8 × 10^3 cells/well and incubated for two days in a 5% CO2 incubator at 37 °C. Then, the cells were treated with the synthesized compounds and the cell cultures were continued incubated for 24 h. However, Different concentrations of the compound under test (0.0, 5.0, 12.5, 25.0 and 50 mg/ml) were added to the cell monolayer. Then, (3-[4,5-dimethylthiazol-2-yl]- 2,5-diphenyltetrazolium bromide) MTT solution (20 µl, 5mg/mL) was added to each well and incubated for additional 4 h. The formed purple crystals of MTT-formazan were dissolved in 100 µl DMSO each well; the absorbance of each well was measured at 570 nm using a plate reader (EXL 800, USA). All of the compounds were tested three times. The relative cell viability in percentage was calculated. The results for IC50 values of the active compounds are […]
(§2) The data represented the mean of three independent experiments in triplicate and were expressed as means ± SD. […]
of the cells could survive. […]

[3] = test system: Solid Ehrlich Carcinoma (SEC); experiment: In vivo antitumor activity against Solid Ehrlich Carcinoma; design: species or system Swiss albino mice; conditions: SEC-bearing mice, 5 mg/kg BW I.P.
Description: To examine the in vivo anticancer activity of compound 9d, adult female Swiss albino mice (30 mice) inoculated with I.P. injection of Solid Ehrlich Carcinoma (SEC) tumour cell lines in a volume of 0.2 ml physiological saline contains 1 × 10^6 viable cells for 24 h.
These mice were randomly divided into four groups (7 mice/group). […] Bodyweight and survival were recorded daily until the 24th day in both treated and control groups. At the end of the experiment, the blood of each group was collected under light anaesthesia for the estimation of hematological and biochemical assays. The anaesthetised animals were then sacrificed to evaluate of the antitumor activity and to conduct hematological, biochemical, and histopathological assays, Figure 3.
Adult female Swiss albino mice purchased from Theodor Bilharzia Research Institute, Giza, Egypt, with an average bodyweight of (18–23) g were used. Mice were housed under constant conditions of 12 h light/dark cycle in a […], with free access to standard laboratory mice food and water. All procedures related to care and maintenance of the animals were performed according to the international guiding principles for animal research and approved by the Faculty of Science, Suez Canal University bioethics and animal ethics committee (Approval number REC-07–2021).
Solid Ehrlich carcinoma (SEC) was purchased from the National Cancer Institute (Cairo University, Egypt). The tumour cell line was proliferated in mice through serial intraperitoneal (I.P.) transplantation of a volume of 0.2 ml physiological saline contains 1 × 10^6 viable cells for 24 h. SEC cells were collected 7 days after I.P. implantation. The harvested cells were diluted with saline to obtain a concentration of 5 × 10^6 viable SEC cells/mL. A volume of 0.2 ml saline contains 1 × 10^6 SEC cells that were I.P. implanted into each normal mouse. SEC cells (1 × 10^6 tumour cells/mouse) were implanted subcutaneously into the right thigh of the hind limb.
as §1
It includes tumour volume, weight, and tumour inhibition ratio (TIR%). Time interval measurements of tumour volume using digital Vernier calliper (Tricle Brand, Shanghai, China). Measure tumour length and width using a clipper and then calculate tumour volume using formulations V = (L × W × W)/2, where V is tumour volume, W is tumour width, L is tumour length. While TIR% was calculated according to the following equation Tumor volume (Control)−Tumor volume (treated)/Tumor volume (control)× 100.

[4] = test system: Calf thymus DNA; experiment: DNA intercalation assay (DNA/methyl green colorimetric assay); format: binding; conditions: three independent experiments
Description: as §2
4.2.2. DNA intercalation assay (DNA/methyl green colorimetric assay)
Affinity of some compounds for DNA-binding was examined in vitro using DNA/methyl green assay using doxorubicin as a positive control. In this test, a mixture of methyl green (20 mg) and Calf thymus DNA (10 mg) (Sigma– Aldrich) were suspended in 0.05 M TrisHCl buffer (100 mL, pH 7.5) containing 7.5 mM MgSO4. This mixture was stirred continuously for 24 h at 37 °C. Then, ethanolic solution of the test compounds was pitted into the wells of a 96-well microtiter tray at a concentration of 10, 100 and 1000 µM. The excess solvent was removed from each well under vacuum, with subsequent addition of 200 µL of the DNA/methyl green solution. The test samples were incubated for 24 h in dark at ambient temperature. After that, absorbance of each sample was determined at 642.5–645 nm. In this test, the methyl green dye reversibly binds to DNA to form persistent colored complex of DNA/methyl green. This color still stables at neutral pH. When the DNA intercalators were added, the methyl green was displaced from DNA with addition of H2O molecule to the dye resulting in formation of the colorless carbinol leading to a decrease in spectrophotometric absorbance. ΔA value (the difference between DNA/methyl green complex and free cabinol) provides the simplest means for detecting the DNA-binding affinity and relative binding strength. IC50′s were determined by linear regression of data plotted on a semi -log scale and the data were compared with doxorubicin as standard DNA intercalator . […]

[5] = Hematological and biochemical blood assays in SEC-bearing mice; format: in vivo, Swiss albino mice; conditions: 5 mg/kg BW, Mean ± SEM (n = 7)
Description: At the end of the experiment, animals from different groups were sacrificed, and blood samples were collected for hematological parameters, including Hb, RBC’s, and WBC’s levels, and serum for determination of liver enzymes ALT, AST levels, and proteins.
as §1
At the end of the experiment, animals from different groups were sacrificed, and blood samples were collected for hematological parameters including, Hb, RBC’s, and WBC’s levels, and serum for determination of liver enzymes ALT, AST levels, and proteins. Complete blood count (CBC) was investigated using the Abbott CELL-DYN®1800 automated haematology analyser (USA) using ready-made kits (Abbott Laboratories, Abbott Park, IL, USA). Activities of aspartate aminotransferase (AST) and alanine aminotransferase (ALT) were evaluated using commercial kits (ELITech clinical systems, France). Serum albumin level was determined by kit purchased from STANBIO Company (USA). Protein content was determined by colorimetric method using ready-made kits produced by Instrumentation Laboratory SpA, Inova diagnostics, Milano, Italy.

SMILES: COc1cccc2c1C(=O)c1c(O)c3c(c(O)c1C2=O)C[C@@](O)(C(=O)CO)C[C@@H]3O[C@H]1C[C@H](N)[C@H](O)[C@H](C)O1 [Doxorubicin, reference compound]
- Histopathological finding in liver tissue [1]: tissue enhancement like normal group, but still, some hydropic degeneration, pyknosis (arrows) and karyolysis (arrowhead) were shown
- IC50 [2]: 9.62 ± 0.5 µM
- tumour volume [3]: 22 mm^3
- reduction of the increase in solid tumour mass ([3]; compared to SEC control): 59.8%
- solid tumour mass ([3]; SEC control 194 mg): 78 mg
- IC50 [4]: 31.3 ± 1.8 µM
- Hb [5]: 7.82 ± 0.27 g/dL
- RBCs count [5]: 5.26 ± 0.38 ×10^6/µL
- Total Protein [5]: 6.73 ± 0.26 g/dL
- WBCs count [5]: 4.11 ± 0.57 ×10^3/µL
